# According to patent US5814627A, “3, 5-disubstituted and 3, 4, 5-trisubstituted 2-isoxazolines and isoxazoles, process for their preparation and their use as pharmaceuticals” (Hoechst Aktienegesellschaft, priority 1994, dated 1998):
# Experiments:
# [1] = system: polymorphonuclear leucocytes (PMNL); assay: Test 1: Release of proteolytic activity from human PMNL; type: cell-based; conditions: Homo sapiens, PMNL, read-out: Test 1 residual activity (release of proteolytic activity), percent of control
# Description: Isolation of polymorphonuclear leucocytes (PMNL) from human peripheral blood for carrying out tests 1 and 2 10 ml of human blood were diluted with 10 ml of HBSS (Serva) and underlaid with 15 ml of Lymphoprep (Dr. Molter GmbH, Heidelberg). […] A white ring, composed of mononuclear cells, is located between these two phases. The lowermost phase is composed of erythrocytes which are covered with a white layer of PMNL. The uppermost phase, and also the Lymphoprep and the white ring, were carefully removed using a syringe. The remaining sediment was carefully resuspended in 15 ml of 3% dextran in PM16 (mw: 485,000, Sigma, Deisenhofen). The suspension was then left to stand at room temperature for one hour. During this time, the erythrocytes sedimented while the PMNL remained in the supernatant. The supernatant was removed, diluted with an approximately equal volume of PM16, and centrifuged for 15 minutes at 400×g. Should the PMNL sediment be heavily contaminated with erythrocytes, it is necessary to carry out a hypotonic lysis. To do this, the sediment was resuspended in 750 μl of water. After exactly 15 seconds, the suspension was diluted with approximately 7 ml of PM16 and centrifuged for 10 minutes at 400×g. If necessary, this lysis was repeated once more. Otherwise, the PMNL sediment was resuspended in a suitable medium. 250 μl of PMNL (5·10^6 cells/ml of PBS containing 7.5 mM glucose) were incubated at 37° C. for 20 minutes with 1 μl of test substance. 1 μl of cytochalasin B (5 μg/ml of test mixture) was then added and the mixture was incubated at 37° C. for a further 5 minutes. Following the addition of 1 μl of […] necrosis factor alpha (TNF; 30 ng/ml of test mixture), the incubation was continued for 5 minutes. The release was started using 1 μl of fMLP (10 nmol/l of test mixture). After 60 minutes at 37° C., the reaction was terminated by cooling the samples down to 0° C. The samples were then centrifuged, and the supernatant was removed and frozen down. Cytochalasin B and fMLP were dissolved in DMSO and TNF was diluted with buffer. 50 μl of the supernatant were mixed with 175 μl of buffer (100 mM HEPES, pH 7.5; 500 mM NaCl) in a 96-well microtiter plate. Following the addition of 25 μl of substrate (methoxysuccinyl-[…]-nitroanilide), the extinction of each well was measured at 405 nm after 0, 5, 10, 15, 30 and 60 minutes. […] The interleukin is additionally indicated in test 4.
# [2] = system: polymorphonuclear leucocytes (PMNL); assay: Test 2: Release of oxygen radicals from human PMNL; type: cell-based; conditions: read-out: Test 2 residual activity (release of oxygen radicals), percent of control
# Description: Isolation of polymorphonuclear leucocytes (PMNL) from human peripheral blood for carrying out tests 1 and 2 10 ml of human blood were diluted with 10 ml of HBSS (Serva) and underlaid with 15 ml of Lymphoprep (Dr. Molter GmbH, Heidelberg). The sample was then centrifuged for 25 minutes at 400×g (1600 revolutions per minute, Minifuge 2, Heraeus, Osterode). […] A white ring, composed of mononuclear cells, is located between these two phases. The lowermost phase is composed of erythrocytes which are covered with a white layer of PMNL. The uppermost phase, and also the Lymphoprep and the white ring, were carefully removed using a syringe. The remaining sediment was carefully resuspended in 15 ml of 3% dextran in PM16 (mw: 485,000, Sigma, Deisenhofen). The suspension was then left to stand at room temperature for one hour. During this time, the erythrocytes sedimented while the PMNL remained in the supernatant. The supernatant was removed, diluted with an approximately equal volume of PM16, and centrifuged for 15 minutes at 400×g. Should the PMNL sediment be heavily contaminated with erythrocytes, it is necessary to carry out a hypotonic lysis. To do this, the sediment was resuspended in 750 μl of water. After exactly 15 seconds, the suspension was diluted with approximately 7 ml of PM16 and centrifuged for 10 minutes at 400×g. If necessary, this lysis was repeated once more. Otherwise, the PMNL sediment was resuspended in a suitable medium.
# The PMNL were resuspended (5·10^6 cells/ml) in Dulbecco's PBS, supplemented with 7.5 mM glucose. Care must be taken to ensure that the PMNL are free of erythrocytes. 100 μl of PMNL, 700 μl of PBS+glucose and 100 μl of cytochrome C (9.38 mg/ml of PBS+glucose) were mixed in a semi-microcuvette. 100 μl of PMNL, 500 μl of PBS+glucose, 100 μl of cytochalasin B ([…]), 100 μl of TNF (0.05 ng) and 100 μl of cytochrome C (9.38 mg/ml of PBS+glucose) were mixed for the fMLP-induced release of oxygen. Measurements were made in a double-beam photometer meter (Perkin-Elmer 552 S) at a wavelength of 550 nm. The measurement range is 0-1 extinction units. The cuvettes were temperature-equilibrated to 37° C. The reference cuvette additionally contained 10 μl of SOD (6 mg of SOD/ml of PBS+glucose). Following a preincubation of 5 minutes, the reaction is started with 100 μl of inducer. The reaction is started with 1·10^-7 mol of fMLP.
# (§1) The values in the table show the concentration of the test substance which was employed in μM and, besides this, the residual activity measured in percent based on the control, which was set to be 100%. The interleukin is additionally indicated in test 4.
# [3] = system: cyclooxygenase-dependent thrombocyte aggregation; assay: Test 5: Cyclooxygenase-dependent thrombocyte aggregation; type: cell-based, human; conditions: Homo sapiens, arachidonic acid as inducer, read-out: Test 5 residual activity (cyclooxygenase-dependent thrombocyte aggregation), percent of control
# Summary of the method: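 Citrated human platelet-rich plasma was preincubated 10 min at 37 °C with test substance diluted 1:30 in 50 mM Tris-HCl pH 8.0, 90 mM NaCl. Aggregation was triggered with arachidonic acid (5 mg/ml, 20 μl) under 800 rpm stirring in an aggregometer. Values are tested concentration (μM) and residual activity as % of control.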
# [4] = system: adjuvant/arthritis model; assay: Test 6: antiarthritic effect in the adjuvant/arthritis model; type: in vivo, rat (Wistar-Lewis); conditions: Rattus norvegicus, po, 408 h, daily for 17 days, rat, read-out: Test 6 Paw volume (% inhibition)
# Description: Male rats of a Wistar-Lewis strain (Mollegaard/Denmark) were used as experimental animals. The body weight is between 160 and 200 g. Subplantar injection of 0.1 ml of Freund's adjuvant (=6 mg of Mycobacterium butyricum suspension, Difco Lab./Detroit, Mich. USA, per ml of heavy white paraffin oil, Merck, Darmstadt) into the root of the tail resulted, on the 10th to 14th day of the experiment, in immunopathological processes and chronic inflammations, particularly in the form of arthritic and periarthritic symptoms, at other sites in the body (secondary lesions). The animals were fed ad libitum with the standard feed Altromin-R, from Altrogge, Lage, and provided with tap water. The animals were given 60 mg of codein per kg as an analgesic from the 14th day to the end of the experiment. The test substances were administered orally as a CMC suspension, in an injection volume of 1 ml/100 g of body weight, on each day (in all for 17 days), beginning on the day of the adjuvant administration. The volumes of each of the hind paws, and the body weight, were measured on the first and on the 18th day of the experiment. Diminution in the increase of paw volume, as compared with the untreated control group, served as the criterion of activity, with the two hind paws being averaged.
# [5] = system: tumor cell line 20-10-5S (hybridoma cell line); assay: Test 8: Inhibition of tumor cell proliferation; type: cell-based; conditions: 48 h + 16 h tritiated thymidine incorporation; 20-10-5S cells
# Description: The tumor cell line 20-10-5S (hybridoma cell line, supplied by ATCC (American Type Culture Collection)), which produces an antibody against mouse T cells) was used for determining the antiproliferative property of test substances. The cells were cultured, at 37° C. and 5% C2, under serum-free conditions in CG medium (cell-growth medium=Iscove-ATL (+albumin+transferrin+lipids); from Vitromex, Vilshofen). Only cells which were in the logarithmic phase of growth were used for the test mixture. The test substances were pipetted in various concentrations (from 1 to 50 μM), together with 4×10^3 20-10-5S cells, into round-bottomedmicrotiter plates (total volume with medium, 200 μl). After an incubation time of 48 h (37° C. and 5% CO2), 25 μl of tritiated thymidine (=0.25 μCi/test mixture, specific activity, 23 Ci/mM) were added to the plates. During the subsequent 16 h, the radioactively labeled thymidine was incorporated into the DNA of the growing cells. The samples were filtered off with suction on glass fiber filters and the incorporated radioactivity was measured using a β counter (Beta Plate System 1205 from Wallac).
# [6] = system: PAF-induced asthma attack; assay: Test 7: antiasthmatic effect, PAF-induced asthma attack; type: in vivo; conditions: Cavia porcellus; i.d., 15 minutes before PAF; guinea pig
# Description: Test 7: Testing for antiasthmatic effect
# Anesthetized guinea pigs, which were cannulated in the jugular vein to allow injection of the PAF, were used for testing for antiasthmatic effect. The test preparations were also administered intravenously (i.v.), 5 min before PAF administration, into the blood stream through the same venous cannula, or else administered intraduodenally (i.d.), 15 minutes before the PAF, through an opening in the duodenum which had been installed and cannulated surgically. The bronchial width was recorded in an overflow pneumonogram before and after administering the preparation. Evaluation: ED50 in mg/kg i.d. as compared with the PAF-induced asthma attack.
# [7] = system: IL-1α release from mononuclear cells; assay: Test 4: cytokine release from LPS-stimulated mononuclear cells, IL-1α; type: cell-based; conditions: Homo sapiens, read-out: Test 4 residual activity (IL-1α release), percent of control
# Description: (§2) Test 4. Stimulation of the cytokine release
# (§3) Isolation of mononuclear cells from human blood
# (§4) 10 ml of human blood, stabilized with 1 ml of 3.8% sodium citrate solution, were diluted with 10 ml of PM16 (Serva, Heidelberg) and underlaid with 15 ml of Lymphoprep (Dr. Molter GmbH, Heidelberg). The samples were centrifuged, at room temperature for 40 minutes, at 400×g (1600 rpm, Minifuge 2, Heraeus, Osterode). The mononuclear cells are visible as a white ring at the Lymphoprep/plasma interface. This ring was carefully removed with a syringe, diluted with an equal volume of PM16, and centrifuged for 10 minutes at 400×g. The sediment was washed with approximately 10 ml of RPMI1640 (+300 mg/l L-glutamine, Gibco, Eggenstein) (Wallis, 1986). After the cells had been resuspended in approximately 1 ml of RPMI1640 (+300 mg/l L-glutamine+25 mM HEPES+100 μg/ml streptomycin+100 μg/ml penicillin), the cell density was determined using a Coulter Counter JT (Coulter Diagnostics) and adjusted to 5*10^6 /ml. Typically, the cells are composed of 90% lymphocytes and 10% monocytes.
# 230 μl of mononuclear cells were incubated, at 37° C.; 5% CO2 for 20-22 hours (5 hours in the case of IL-6), with 10 μl of test substance ([…]) and 10 μl of lipopolysaccharide (LPS; 500 μg dissolved in 1 ml of DMSO and diluted 1/10 with water prior to beginning the test; from Salmonella abortus equi, Sigma, Deisenhofen). The samples were cooled down to 0° C. in an ice bath and centrifuged in a Sigma centrifuge (2 minutes; 2000 rpm). Aliquots of the supernatant are measured with an ELISA (Biermann, Bad Nauheim). The abbreviation IL stands for interleukin and TNF for tumor necrosis factor alpha.
# as §1
# [8] = system: TNFα release from mononuclear cells; assay: Test 4: cytokine release from LPS-stimulated mononuclear cells, TNFα; type: cell-based; conditions: Homo sapiens, read-out: Test 4 residual activity (TNFα release), percent of control
# Description: as §2, §3, §4
# 230 μl of mononuclear cells were incubated, at 37° C.; 5% CO2 for 20-22 hours (5 hours in the case of IL-6), with 10 μl of test substance (10 μM in DMSO/water, 1/10) and 10 μl of lipopolysaccharide (LPS; 500 μg dissolved in 1 ml of DMSO and diluted 1/10 with water prior to beginning the test; from Salmonella abortus equi, Sigma, Deisenhofen). The samples were cooled down to 0° C. in an ice bath and centrifuged in a Sigma centrifuge (2 minutes; 2000 rpm). Aliquots of the supernatant are measured with an ELISA (Biermann, Bad Nauheim). The abbreviation IL stands for interleukin and TNF for tumor necrosis factor alpha.
# as §1
IC50 [5] [µM],SMILES,activity at 10 µM [1] [%],activity at 100 µM [1] [%],activity at 10 µM [2] [%],activity at 10 µM [3] [%],ED50 [6] [mg/kg],activity at 10 µM [7] [%],other results
< 5,C[C@@H](O)[C@@H]1CC(c2cc(C(C)(C)C)c(O)c(C(C)(C)C)c2)=NO1 (relative stereo) [Example 19],78,20,94,100,–,–,inhibition in vivo at 25 mg/kg ([4]; 25 mg/kg orally): 85%
6.1,CC(=O)C1CC(c2cc(C(C)(C)C)c(O)c(C(C)(C)C)c2)=NO1 (centres unmarked) [Example 13],77,20,65,98,~50,–,activity at 25 µM ([2]; 25 μM): 22%; inhibition in vivo at 50 mg/kg ([4]; 50 mg/kg orally): 84%
5 to 10,CC(O)C1CC(c2cc(C(C)(C)C)c(O)c(C(C)(C)C)c2)=NO1 (centres unmarked) [Example 18],–,–,–,–,–,89,activity at 100 µM ([7]; 100 μM): 36%
< 5,CC(C)(C)c1cc(-c2cc(CCCO)on2)cc(C(C)(C)C)c1O [Example 26],–,–,–,94,–,–,activity at 10 µM [8]: 88%
–,CCOC(=O)C(C)(C)OCc1cc(-c2cc(C(C)(C)C)c(O)c(C(C)(C)C)c2)no1 [Example 35],–,–,–,–,–,84,activity at 100 µM ([3]; 100 μM): 94%
30,"CC(=O)c1cc(-c2cc(C(C)(C)C)c(O)c(C(C)(C)C)c2)no1 [Example 59, 3-(4-Hydroxy-3,5-di-tert-butylphenyl)-5-acetylisoxazole]",61,35,48,–,1 to 3,–,activity at 1 µM ([1]; 1 μM): 91%; activity at 1 µM ([2]; 1 μM): 135%
